Assay results taken from patent publication US20040121965A1, “Method of treating resistant tumors” (Wyeth Holdings Corporation, priority 2002, published 2004).
Read-outs that look alike come from different tables or passages of the source.

Legend:
KB-8-5 (MDR1+) = test: Cell survival assay (SRB), KB-8-5 (MDR1+); details: for IC50: Homo sapiens
KB-V1 (MDR1++) = test: Cell survival assay (SRB), KB-V1 (MDR1++); details: for IC50: Homo sapiens
KB-3-1 = test: Cell survival assay (SRB), KB-3-1; format: cell-based, human
Description: Cells lines with previously known mechanisms of resistance. […] Res. 8: 207-218,1996); KB-3-1 (parental derived from an epidermoid carcinoma), KB-8.5, KB-V1 (Akiyama S-I, Fojo A, Hanover J A, Pastan I, Gottesman M M. Isolation and genetic characterization of human KB cell lines resistant to multiple drugs. Somatic Cell Mol. Gen., 11: 117-126,1985; Shen D-W, Cardarelli C, Hwang J, Cornwell M, Richert N, Ishii S, Pastan I, Gottesman MM. […] J. Biol. Chem., 261: 7762-7770, 1986); and HL-60 (parental derived from human leukemia) and HL60/AR (McGrath T., Center M. S. Adriamycin resistance in HL60 cells in the absence of detectable P-glycoprotein. Biochem. Res. Commun., 145:1171-1176,1987); A549 and A549.EpoB40 (He L., Yang C.-P.H., Horwitz S. B. Mutations in p-tubulin map to domains involved in regulation of microtubule stability in epothilone-resistant cell lines. Molecular Cancer Therapeutics. 1: 3-10, 2001). HCT-15 human colon carcinoma and DLD-1 human colon carcinoma are obtained from American Tissue Culture Collection. The MX-1W carcinoma is a Wyeth variant orginally obtained as MX-1 breast carcinoma from the National Cancer Institute. Cell lines selected for resistance to Representative Example 129. KB-3-1 cells are selected for resistance to Example 129 by chronically exposing cells to increasing concentrations of Example 129.
2.2. Cell Survival Assay: Standard Pharmacological Test Procedure. The concentration of candidate inhibitor required to inhibit 50% of cell growth (IC50) is done according to previously reported methods. […] Compounds are serially diluted into media as 2× stocks and 100 μl added to cells in duplicate. Compounds are incubated with cells for 3 days. At the end of the incubation period the sulforhodamine B (SRB) assay, which measures protein content as an assessment of cell survival, is performed as described previously (Skehan P, Storeng R, Scudiero D, Monks A, McMahon J, Vistica D, Warren J T, Bokesch H, Kenney S, Boyd MR. New calorimetric cytotoxicity assay for anticancer-drug screening. J Natl Cancer Inst 1990 Jul 4;82(13):1107-12) with some modification as follows. For KB-3-1 cells with 20% FCS, media is gently decanted and replaced with 200 μl of serum-free media mixed with cold 50% TCA for a final concentration of 10% TCA. The plates are incubated for 1 hr at 4° C., followed by washing 5 times in cold distilled water, then air dried overnight. The fixed cells are stained for 10 min with 80 μl of 0.04% SRB solution prepared in 1% glacial acetic acid. Stain is discarded and plates washed 5 times in 1% glacial acetic acid, then air-dried until completely dry. Stained cell product is dissolved in 150 μl of 10 mM Trizma Base and placed on a shaker for 20 minutes until fully dissolved. Absorbance is read on a Victor V multi-label plate reader (Perkin Elmer, Gaithersburg, Md.).

[1] = MDR1, read-out: In vitro IC50 (nM) KB85
[2] = read-out: In vitro IC50 (nM) KBV1
[3] = Homo sapiens, KB 3-1, KB-3-1 cells (paclitaxel-sensitive parent), read-out: In vitro IC50 (nM) KB-3-1

| Structure (SMILES) | Ratio KB85/KB (KB-8-5 (MDR1+)) | IC50 (KB-8-5 (MDR1+); [1]) | Ratio KBV1/KB (KB-V1 (MDR1++)) | IC50 (KB-V1 (MDR1++); [2]) | IC50 (KB-3-1; [3]) | resistance of KB-8-5 cells (KB-8-5 (MDR1+)) | IC50 (KB-8-5 (MDR1+); MDR1, read-out: KB-8-5 (MDR1+) IC50, nM (N)) | IC50 (KB-V1 (MDR1++); read-out: KB-V1 (MDR1++) IC50, nM (N)) | IC50 (KB-3-1; KB-3-1 parental, Table 8, read-out: KB-3-1 IC50) |
| --- | --- | --- | --- | --- | --- | --- | --- | --- | --- |
| CNC(C(=O)NC(C(=O)N(C)C(C=C(C)C(=O)O)CC(C)C)C(C)(C)C)C(C)(C)c1ccccc1.O=C(O)C(F)(F)F (stereo not shown) [Example 104, 4-{[3,3-Dimethyl-2-(3-methyl-2-methylamino-3-phenyl-butyrylamino)-butyryl]-methyl-amino}-2,6-dimethyl-hept-2-enoic Acid Trifluoroacetic Acid] | 1.8 | 50.5 nM | 79.3 | 2200 nM | 27.7 nM | – | – | – | – |
| CCOC(=O)/C(C)=C/[C@H](C(C)C)N(C)C(=O)[C@@H](NC(=O)[C@@H](NC)C(C)(C)c1ccc(C)c(C)c1)C(C)(C)C [Example 13a, N,β, β,3,4-Pentamethyl-L-phenylalanyl-N^1-[(1S,2E)4-ethoxy-1-isopropyl-3-methyl-4-oxo-2-butenyl]-N^1,3-dimethyl-L-valinamide] | 24.0 | 219 nM | 191.0 | 1740 nM | 9.1 nM | – | – | – | – |
| CN[C@@H](C(=O)N[C@H](C(=O)N(C)[C@H](/C=C(\C)C(=O)O)C(C)C)C(C)(C)C)C(C)(C)c1ccc(Cl)cc1 [Example 6, 4-Chloro-N,β,β-trimethyl-D-phenylalanyl-N^1-[(1S,2E)-3-carboxy-1-isopropyl-2-butenyl]-N^1,3-dimethyl-L-valinamide] | 2.0 | 17.4 nM | 162.4 | 1380 nM | 8.5 nM | – | – | – | – |
| CCOC(=O)/C(C)=C/[C@H](C(C)C)N(C)C(=O)[C@@H](NC(=O)[C@@H](NC)C(C)(C)c1cc(C)cc(C)c1)C(C)(C)C [Example 16a, N,β,β,3,5-Pentamethyl-L-phenylalanyl-N^1-[(1S,2E)-4-ethoxy-1-isopropyl-3-methyl-4-oxo-2-butenyl]-N^1,3-dimethyl-L-valinamide] | 20.0 | 302 nM | 120.5 | 1820 nM | 15.1 nM | – | – | – | – |
| CN[C@H](C(=O)N[C@H](C(=O)N(C)[C@H](/C=C(\C)C(=O)O)C(C)C)C(C)(C)C)C(C)(C)c1cccc(OC)c1 [Example 46, 3-Methoxy-N,β,β-trimethylphenylalanyl-N^1-[(1S,2E)-3-carboxy-1-isopropyl-2-butenyl]-N^1,3-dimethyl-L-valinamide] | 1.7 | 5.9 nM | 64.0 | 224 nM | 3.5 nM | – | – | – | – |
| CCN[C@H](C(=O)N[C@H](C(=O)N(C)[C@H](/C=C(\C)C(=O)O)C(C)C)C(C)(C)C)C(C)(C)c1ccccc1 [Example 151, N-ethyl-β,β-dimethyl-L-phenylalanyl-N^1-[(1S,2E)-3-carboxy-1-isopropylbut-2-enyl]-N^1,3-dimethyl-L-valinamide] | 1.5 | – | 11.3 | – | – | – | – | – | – |
| CN[C@@H](C(=O)N[C@H](C(=O)N(C)[C@H](/C=C(\C)C(=O)O)C(C)C)C(C)(C)C)C(C)(C)c1cc(C)cc(C)c1 [Example 18, N,β,β,3,5-Pentamethyl-D-phenylalanyl-N^1-[(1S,2E)-3-carboxy-1-isopropyl-2-butenyl]-N^1,3-dimethyl-L-valinamide] | 2.4 | 17.4 nM | 79.9 | 575 nM | 7.2 nM | – | – | – | – |
| CN[C@H](C(=O)N[C@H](C(=O)N(C)[C@H](/C=C(\C)C(N)=O)C(C)C)C(C)(C)C)C(C)(C)c1ccccc1 [Example 107, (E,4S)-4-[((2S)-3,3-dimethyl-2-{[(2S)-3-methyl-2-(methylamino)-3-phenylbutanoyI]amino}butanoyl)(methyl)amino]-2,5-dimethyl-2-hexenamide] | 2.5 | 162 nM | 46.4 | ≥ 3000 nM | 64.7 nM | – | – | – | – |
| CN[C@H](C(=O)N[C@H](C(=O)N[C@H](/C=C(\C)C(=O)O)C(C)C)C(C)C)C(C)(C)c1ccccc1.O=C(O)C(F)(F)F [Example 102, N,β,β-trimethyl-L-phenylalanyl-N^1-[(1S,2E)-3-carboxy-1-isopropylbut-2-enyl]-L-valinamide Trifluoroacetic Acid] | 1.7 | 618 nM | 8.1 | ≥ 3000 nM | 371 nM | – | – | – | – |
| CN[C@H](C(=O)N[C@H](C(=O)N(C)[C@H](/C=C(\C)C(=O)O)C(C)C)C(C)(C)SCc1ccc(OC)cc1)C(C)(C)c1ccc(OC)cc1 [Example 83, N,O,β,β-tetramethyl-L-tyrosyl-N^1-[(1S,2E)-3-carboxy-1-isopropyl-2-butenyl]-3-[(4-methoxybenzyl)sulfanyl]-N^1-methyl-L-valinamide] | 2.8 | 43.7 nM | 132.2 | 2090 nM | 15.8 nM | – | – | – | – |
| CN[C@H](C(=O)N[C@H](C(=O)N(C)[C@H](/C=C(\C)C(=O)O)C(C)C)C(C)(C)C)C(C)(C)c1ccc(/C=C/c2ccccc2)cc1 [Example 146, N,β,β-trimethyl-4-[(E)-2-phenylvinyl]-L-phenylalanyl-N^1-[(1S,2E)-3-carboxy-1-isopropylbut-2-enyl]-N^1,3-dimethyl-L-valinamide] | 2.4 | 3.1 nM | 53.8 | 70 nM | 1.3 nM | – | – | – | – |
| CN[C@H](C(=O)N[C@H](C(=O)N(C)[C@H](/C=C(\C)C(=O)O)C(C)C)C(C)(C)C)[C@H](C)c1ccccc1 [Example 154, (βR)-N,β-dimethyl-L-phenylalanyl-N^1-[(1S,2E)-3-carboxy-1-isopropylbut-2-enyl]-N^1,3-dimethyl-L-valinamide] | 1.3 | 584 nM | 6.8 | > 3000 nM | 438 nM | – | – | – | – |
| CCOC(=O)/C(C)=C/[C@H](C(C)C)N(C)C(=O)[C@@H](NC(=O)[C@@H](NC)C(C)(C)c1cccc(C)c1)C(C)(C)C [Example 7a, N,β,β,3-Tetramethyl-L-phenylalanyl-N^1-[(1S,2E)4-ethoxy-1-isopropyl-3-methyl-4-oxo-2-butenyl]-N^1,3-dimethyl-L-valinamide] | 24.0 | 525 nM | 110.0 | 2410 nM | 21.9 nM | – | – | – | – |
| COc1cc2c(c(OC)c1OC)-c1ccc(OC)c(=O)cc1[C@@H](NC(C)=O)CC2 [colchicine, reference compound] | – | – | – | – | – | 9.8 fold | 62.7 nM | 2440 nM | – |
| COc1ccc(C[C@H]2NC(=O)/C=C/C[C@@H]([C@H](C)[C@H]3O[C@@H]3c3ccccc3)OC(=O)[C@H](CC(C)C)OC(=O)[C@H](C)CNC2=O)cc1Cl [Cryptophycin-1] | – | – | – | – | – | – | – | – | 0.0064 ± 0.0045 nM |
| CN[C@H](C(=O)N[C@H](C(=O)N(C)[C@H](/C=C(\C)C(=O)NC(CCSC)C(=O)OC)C(C)C)C(C)(C)C)C(C)(C)c1ccccc1 (stereo partly shown) [Example 144, 2-(4-{[3,3-Dimethyl-2-(3-methyl-2-methylamino-3-phenyl-butyrylamino)-butyryl]-methyl-amino}-2,5-dimethyl-hex-2-enoylamino)-4-methylsulfanyl-butyric Acid Methyl] | 14.9 | 55 nM | – | – | – | – | – | – | – |
| CCN[C@H](C(=O)N[C@H](C(=O)N(C)[C@H](/C=C(\C)C(=O)O)C(C)C)C(C)(C)C)C(C)(C)c1ccccc1 [Example 32, N-Ethyl-β,β-dimethylphenylalanyl-N^1-[(1S,2E)-3-carboxy-1-isopropyl-2-butenyl]-N^1,3-dimethyl-L-valinamide] | 2.6 | – | 64.5 | – | – | – | – | – | – |
